Measurements as given in patent publication US8273762B2, “Hexahydro-pyrrolo-isoquinoline compounds” (Janssen Pharmaceutica NV, priority 2005, dated 2012).

Biological target: T1, cloned human H3 receptor, stably expressed in SK-N-MC cells (Homo sapiens, UniProt Q9Y5N1)
T1 construct: expressed in transfected cells
Assay: H3 receptor binding (N-[3H]-α-methylhistamine displacement)
Settings: SK-N-MC membranes, 0.8 nM N-[3H]-α-methylhistamine

T1 sequence (Q9Y5N1 whole entry): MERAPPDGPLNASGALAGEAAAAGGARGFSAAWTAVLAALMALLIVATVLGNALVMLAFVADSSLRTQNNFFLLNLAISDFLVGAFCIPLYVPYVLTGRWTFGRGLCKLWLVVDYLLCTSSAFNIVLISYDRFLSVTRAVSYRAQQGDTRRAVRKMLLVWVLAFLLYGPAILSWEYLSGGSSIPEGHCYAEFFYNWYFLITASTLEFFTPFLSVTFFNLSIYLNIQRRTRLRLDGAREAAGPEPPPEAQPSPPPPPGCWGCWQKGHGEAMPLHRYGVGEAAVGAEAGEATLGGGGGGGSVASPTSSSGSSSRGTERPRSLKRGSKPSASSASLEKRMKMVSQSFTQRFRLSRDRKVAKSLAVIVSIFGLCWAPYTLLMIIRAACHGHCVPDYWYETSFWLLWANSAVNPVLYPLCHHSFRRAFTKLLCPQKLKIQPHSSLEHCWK

SMILES	Ki
c1cnc([C@H]2CN3CCC[C@H]3c3cc(OCCCN4CCOCC4)ccc32)cn1 (relative stereo) [Example 50B, Trans-9-(3-Morpholin-4-yl-propoxy)-6-pyrazin-2-yl-1,2,3,5,6,10b-hexahydro-pyrrolo[2,1-a]isoquinoline]	181 nM
N#Cc1ccc([C@H]2CN3CCC[C@H]3c3ccc(OCCCN4CCCCC4)cc32)cc1 (relative stereo) [Example 43]	30 nM
Oc1ccc([C@H]2CN3CCC[C@H]3c3cc(OCCCN4CCOCC4)ccc32)cn1 (relative stereo) [Example 51B, Trans-5-[9-(3-Morpholin-4-yl-propoxy)-1,2,3,5,6,10b-hexahydro-pyrrolo[2,1-a]isoquinolin-6-yl]-pyridin-2-ol]	5 nM
c1ccc([C@H]2CN3CCC[C@H]3c3ccc(OCCCN4CCCCC4)cc32)cc1 (relative stereo) [Example 45]	16 nM
O=[N+]([O-])c1cccc([C@H]2CN3CCC[C@H]3c3cccc(OCCCN4CCCCC4)c32)c1 (relative stereo) [Example 4C, Cis-6-(3-Nitro-phenyl)-7-(3-piperidin-1-yl-propoxy)-1,2,3,5,6,10b-hexahydro-pyrrolo[2,1-a]isoquinoline]	98 nM
O=[N+]([O-])c1ccc([C@@H]2CN3CCC[C@H]3c3cccc(OCCCN4CCCCC4)c32)cc1 (relative stereo) [Example 2C, Trans-6-(4-Nitro-phenyl)-7-(3-piperidin-1-yl-propoxy)-1,2,3,5,6,10b-hexahydro-pyrrolo[2,1-a]isoquinoline]	29 nM
Clc1ccccc1[C@@H]1CN2CCC[C@H]2c2cccc(OCCCN3CCCCC3)c21 (relative stereo) [Example 12C, Cis-6-(2-Chloro-phenyl)-7-(3-piperidin-1-yl-propoxy)-1,2,3,5,6,10b-hexahydro-pyrrolo[2,1-a]isoquinoline]	91 nM
Clc1ccccc1[C@H]1CN2CCC[C@H]2c2cccc(OCCCN3CCCCC3)c21 (relative stereo) [Example 12D, Trans-6-(2-Chloro-phenyl)-7-(3-piperidin-1-yl-propoxy)-1,2,3,5,6,10b-hexahydro-pyrrolo[2,1-a]isoquinoline]	74 nM
Cc1ccc([C@@H]2CN3CCC[C@H]3c3cccc(OCCCN4CCCCC4)c32)cc1 (relative stereo) [Example 5C, Trans-7-(3-Piperidine-1-yl-propoxy)-6-p-tolyl-1,2,3,5,6,10b-hexahydro-pyrrolo[2,1-a]isoquinoline]	85 nM
CSc1ccc([C@H]2CN3CCC[C@H]3c3cc(OCCCN4CCOCC4)ccc32)cc1 (relative stereo) [Example 63]	16 nM
Fc1ccc([C@@H]2CN3CCC[C@H]3c3cccc(OCCCN4CCCCC4)c32)cc1 (relative stereo) [Example 14C]	200 nM
FC(F)(F)Sc1cccc([C@H]2CN3CCC[C@H]3c3cc(OCCCN4CCOCC4)ccc32)c1 (relative stereo) [Example 62]	6 nM
c1cnc([C@@H]2CN3CCC[C@H]3c3cc(OCCCN4CCOCC4)ccc32)cn1 (relative stereo) [Example 50A, Cis-9-(3-Morpholin-4-yl-propoxy)-6-pyrazin-2-yl-1,2,3,5,6,10b-hexahydro-pyrrolo[2,1-a]isoquinoline]	4 nM
COc1ccc([C@@H]2CN3CCC[C@H]3c3cc(OCCCN4CCOCC4)ccc32)cc1 (racemic) [Example 93]	5 nM
c1cn(-c2ccc([C@H]3CN4CCC[C@H]4c4cc(OCCCN5CCOCC5)ccc43)cc2)cn1 (relative stereo) [Example 48B, Trans-6-(4-Imidazol-1-yl-phenyl)-9-(3-morpholin-4-yl-propoxy)-1,2,3,5,6,10b-hexahydro-pyrrolo[2,1-a]isoquinoline]	5 nM
Clc1ccc([C@H]2CN3CCC[C@H]3c3cccc(OCCCN4CCCCC4)c32)cc1Cl (relative stereo) [Example 6C]	76 nM

The remaining compounds from weak to strong by Ki, led by results:

Ki	SMILES
4 nM	COc1ccc([C@H]2CN3CCC[C@H]3c3cc(OCCCN4CCOCC4)ccc32)cc1F (relative stereo) [Example 65]
3 nM	c1csc([C@H]2CN3CCC[C@H]3c3cc(OCCCN4CCOCC4)ccc32)n1 (relative stereo) [Example 53]
3 nM	COc1ccc([C@H]2CN3CCC[C@H]3c3cc(OCCCN4CCOCC4)ccc32)cc1Cl (relative stereo) [Example 64]
3 nM	c1cc([C@H]2CN3CCC[C@H]3c3cc(OCCCN4CCOCC4)ccc32)cs1 (relative stereo) [Example 56]
3 nM	c1ccc([C@H]2CN3CCC[C@H]3c3cc(OCCCN4CCOCC4)ccc32)nc1 (relative stereo) [Example 60]
3 nM	Oc1ccc([C@@H]2CN3CCC[C@H]3c3cc(OCCCN4CCOCC4)ccc32)cn1 (relative stereo) [Example 51A, Cis-5-[9-(3-Morpholin-4-yl-propoxy)-1,2,3,5,6,10b-hexahydro-pyrrolo[2,1-a]isoquinolin-6-yl]-pyridin-2-ol]
2 nM	Brc1ccc([C@H]2CN3CCC[C@H]3c3ccc(OCCCN4CCCCC4)cc32)cc1 (relative stereo) [Example 42, Trans-6-(4-Bromo-phenyl)-8-(3-piperidin-1-yl-propoxy)-1,2,3,5,6,10b-hexahydro-pyrrolo[2,1-a]isoquinoline]
2 nM	c1ccn2c([C@H]3CN4CCC[C@H]4c4cc(OCCCN5CCOCC5)ccc43)cnc2c1 (relative stereo) [Example 55]
2 nM	N#Cc1cccc([C@H]2CN3CCC[C@H]3c3cc(OCCCN4CCOCC4)ccc32)c1 (relative stereo) [Example 58]
2 nM	c1cncc([C@H]2CN3CCC[C@H]3c3cc(OCCCN4CCOCC4)ccc32)c1 (relative stereo) [Example 59]
1 nM	c1ccc([C@@H]2CN3CCC[C@H]3c3ccc(OCCCN4CCCCC4)cc32)cc1 (relative stereo) [Example 44]
1 nM	Clc1ccc([C@H]2CN3CCC[C@H]3c3cc(OCCCN4CCCCC4)ccc32)cc1 (relative stereo) [Example 66B, Trans-6-(4-chloro-phenyl)-9-(3-piperidin-1-yl-propoxy)-1,2,3,5,6,10b-hexahydro-pyrrolo[2,1-a]isoquinoline]
1 nM	Cc1ccc([C@@H]2CN3CCC[C@H]3c3cc(OCCCN4CCCCC4)ccc32)cc1 (relative stereo) [Example 5B, Trans-9-(3-Piperidine-1-yl-propoxy)-6-p-tolyl-1,2,3,5,6,10b-hexahydro-pyrrolo[2,1-a]isoquinoline]
1 nM	CSc1ccc([C@@H]2CN3CCC[C@H]3c3cc(OCCCN4CCCCC4)ccc32)cc1 (relative stereo) [Example 39B, Trans-6-(4-Methylsulfanyl-phenyl)-9-(3-piperidin-1-yl-propoxy)-1,2,3,5,6,10b-hexahydro-pyrrolo[2,1-a]isoquinoline]
1 nM	Clc1ccc([C@H]2CN3CCC[C@H]3c3cc(OCCCN4CCCCC4)ccc32)cc1Cl (relative stereo) [Example 6B, Trans-6-(3,4-Dichloro-phenyl)-9-(3-piperidin-1-yl-propoxy)-1,2,3,5,6,10b-hexahydro-pyrrolo[2,1-a]isoquinoline]
1 nM	c1cc([C@@H]2CN3CCC[C@H]3c3cc(OCCCN4CCCCC4)ccc32)ccn1 (relative stereo) [Example 27A, Cis-9-(3-Piperidin-1-yl-propoxy)-6-pyridin-4-yl-1,2,3,5,6,10b-hexahydro-pyrrolo[2,1-a]isoquinoline]
